{"source": "patent US20240350536A1", "about": "“Application of Bi-Phenols in Anti-ototoxicity and Hearing Protection” (Northwestern University, priority 2017, published 2024)", "key": {"[1]": {"tested_on": "prostate cancer cells (C4-2B)", "assay": "Survival of prostate cancer cells with cisplatin and honokiol", "format": "cell-based", "experimental": "(§1) FIG. 10. […] C: cisplatin; H: honokiol. […] Each treatment was repeated in triplets. The data were normalized by the number of untreated control (C0H0).\n(§2) Because the role of SIRT3 may be different in different cancers, we selected three (3) different cancer cells for testing: prostate cancer cells, cervical cancer cells, and colon cancer cells. (See FIG. 10). Cisplatin was administered to the cancer cell lines with honokiol."}, "outer hair cells (OHC)": {"tested_on": "outer hair cells (OHC)", "assay": "Immunofluorescent histochemistry and confocal imaging of cochlear whole mount", "format": "in vivo, mice", "text": "FIG. 13. Confocal images of the immunostaining (merged) of cochleae treated with Cis 15 (A) and Cis 15+HNK 20 (B) mg/kg, under 20× objectives.\nFIG. 14. High-resolution confocal images (60× […]) of cochleae treated with Cis 15 (Left) and Cis 15+HNK 20 (Right), taken at the locations marked by white squares in FIGS. 13A and B, respectively. The white arrows indicate the nuclei of the remaining OHCs and the hollow arrows indicate missing OHCs. Note the panels for hair bundles (phalloidin staining) might be off focus and are only for indicating the correct position of the bodies and nuclei of the OHCs.\nImmunofluorescent histochemistry (IFHC) of a cochlear whole mount was performed after the physiological studies described above using prestin antibody (for outer hair cells (OHC)), phalloidin (for hair bundle) and 4′,6-diamidino-2-phenylindole (DAPI) (for nuclei). […] (See FIG. 14A). HC loss can be indicated by the scarcity of remaining nuclei (white arrows)."}, "[2]": {"tested_on": "outer hair cell (OHC) function", "format": "in vivo, mice", "experimental": "FIG. 12A-12E. HNK protection against cisplatin-induced changes of DPOAE amplitude. […] The DPOAE shift, normalized to Day 0, of all the groups are plotted in (FIG. 12B to FIG. 12E). […] The results of the 2 animals in Cis 15 mg/kg group on Day 14 were both plotted in (FIG. 12B) as the dashed lines and open circles. […].\nDistortion product oto-acoustic emissions (DPOAEs), which are an indication of outer hair cell (OHC) function, were measured in a separate series of experiments to estimate OHC protection by honokiol (HNK). (See FIG. 12A-12E). […] (See FIGS. 12D and 12E). After pre-treatment with HNK at a dosage of 10 mg/kg, the DPOAE shift was observed only at frequencies of 27 kHz and higher with a much smaller amplitude. (See FIG. 12D)."}, "[3]": {"assay": "Weight loss and animal survival in cisplatin-treated mice", "format": "in vivo", "text": "(See FIG. 15). […] (See FIG. 15). […] (See FIG. 15A). […] (See FIG. 15B)."}, "cervical cancer cells": {"tested_on": "cervical cancer cells", "assay": "Survival of cervical cancer cells with cisplatin and honokiol", "format": "cell-based", "experimental": "as §1, §2"}, "colon cancer cells": {"tested_on": "colon cancer cells", "assay": "Survival of colon cancer cells with cisplatin and honokiol", "format": "cell-based", "experimental": "as §1, §2"}, "[4]": {"settings": "literature statement, cited from earlier work"}, "HEI-OC1 cells": {"tested_on": "HEI-OC1 cells", "text": "FIG. 9. […] The data were normalized to the number of cells in the negative control (C0H0).\n(§3) (See FIG. 9). […] (See FIG. 9). […] (See FIG. 9)."}, "[5]": {"tested_on": "SIRT3, Caspase 3, PARP in HEI-OC1 cells", "assay": "Western blot of SIRT3 and apoptosis-related proteins in HEI-OC1 cells", "format": "cell-based, mouse", "experimental": "FIG. 9. […] (A) C: cisplatin; H: HNK. […] Cisplatin and honokiol were added simultaneously.\nas §3"}, "mice": {"tested_on": "mice", "assay": "Auditory Brainstem Response (ABR) threshold shift in cisplatin-treated mice", "format": "in vivo", "excerpt": "Average=256. The error bars of all data points are standard deviations."}, "[6]": {"settings": "honokiol co-administered with cisplatin"}, "[7]": {"settings": "cisplatin with honokiol pre-treatment"}}, "note": "“Also recorded” adds a separate entry of the source. Where two headings read alike, the source gives them in different places."}
{"compound": "N.N.[Cl][Pt][Cl]", "note": "[cisplatin, reference compound]", "values": [{"measurement": "loss of prostate cancer cells", "setting": "[1]; cisplatin 50 μM or 100 μM", "result": "massive loss"}, {"measurement": "OHC organization and HC loss", "setting": "outer hair cells (OHC); Cis 15 mg/kg, basal 1/3 of the cochlea (estimated over 22 kHz)", "result": "Significant disruption of OHC organization and HC loss"}, {"measurement": "DPOAE amplitude at high frequencies", "setting": "[2]; mouse, in vivo", "result": "reduced"}, {"measurement": "frequencies of apparent DPOAE amplitude drop", "setting": "[2]; mouse, in vivo", "result": "over 16 kHz"}, {"measurement": "survival rate", "setting": "[3]; cisplatin 20 mg/kg, day 8", "result": "zero"}, {"measurement": "reduction in cervical cancer cells", "setting": "cervical cancer cells; cisplatin 50 μM or 100 μM", "result": "mild reduction"}, {"measurement": "loss of colon cancer cells", "setting": "colon cancer cells; cisplatin 100 μM", "result": "massive loss"}]}
{"compound": "C=CCc1ccc(O)c(-c2ccc(O)c(CC=C)c2)c1", "note": "[honokiol, 2-(4-hydroxy-3-prop-2-enyl-phenyl)-4-prop-2-enyl-phenol]", "values": [{"measurement": "passage of the blood-brain barrier", "setting": "[4]", "result": "capable of passing the blood-brain barrier"}, {"measurement": "passage of the blood-brain barrier", "setting": "[4]; listed as HNK", "result": "can also cross the blood brain barrier; also recorded: permeable; also recorded: can pass through the blood-brain barrier"}, {"measurement": "prostate cancer cell (C4-2B) death from cisplatin treatment", "setting": "[1]; HNK up to 25 μM, 50 μM cisplatin, preliminary data", "result": "did not prevent"}, {"measurement": "protection of prostate cancer cells from the toxicity of cisplatin", "setting": "[1]; [6]", "result": "not observed to protect"}, {"measurement": "OHC structure", "setting": "outer hair cells (OHC); Cis 15 + HNK 20 mg/kg, up to the 40 kHz region, only sporadic loss of HCs", "result": "nearly intact OHC structure"}, {"measurement": "cell toxicity", "setting": "HEI-OC1 cells", "result": "no cell toxicity"}, {"measurement": "HEI-OC1 apoptosis induced by cisplatin", "setting": "HEI-OC1 cells; 10 μM HNK, 50 μM cisplatin, 24 hours, preliminary study", "result": "completely prevent"}, {"measurement": "protection against high dose cisplatin ototoxicity", "setting": "HEI-OC1 cells; HNK 10 μM, cisplatin 50 μM", "result": "~100", "unit": "%"}, {"measurement": "protection of HEI-OC1 cells against cisplatin-induced cell loss", "setting": "HEI-OC1 cells; honokiol 5 μM or 10 μM, cisplatin 50 μM or 100 μM", "result": "protect"}, {"measurement": "DPOAE amplitude changes", "setting": "[2]; mice pre-treated with HNK, cisplatin 15 mg/kg", "result": "less pronounced"}, {"measurement": "maximum weight loss", "setting": "[3]; cisplatin 15 mg/kg with honokiol", "result": "about 15%"}, {"measurement": "animals lost", "setting": "[3]; cisplatin 20 mg/kg with honokiol", "result": 20, "unit": "%"}, {"measurement": "survival rate / animal loss", "setting": "[3]; [7]", "result": "significantly reduced; also recorded: improved significantly"}, {"measurement": "weight loss", "setting": "[3]; [7]", "result": "significantly reduced; also recorded: largely improved"}, {"measurement": "effect with cisplatin on cervical cancer cells", "setting": "cervical cancer cells; honokiol 25 μM, cisplatin 50 μM (C50H25)", "result": "synergistic effect"}, {"measurement": "protection of cervical cancer cells from the toxicity of cisplatin", "setting": "cervical cancer cells; [6]", "result": "not observed to protect"}, {"measurement": "SIRT3 expression level", "setting": "[5]; HEI-OC1, HNK with cisplatin, 24 hours after cisplatin treatment, listed as HNK", "result": "increased; also recorded: elevated"}, {"measurement": "DNA damage", "setting": "[5]; HEI-OC1, cisplatin in the presence of HNK, pilot studies", "result": "diminished"}, {"measurement": "cleavage of poly ADP ribose polymerase (PARP)", "setting": "[5]; HEI-OC1, honokiol", "result": "decrease"}, {"measurement": "expression of Caspase 3", "setting": "[5]; HEI-OC1, honokiol", "result": "decrease"}, {"measurement": "expression of SIRT3", "setting": "[5]; HEI-OC1, increasing concentrations of honokiol", "result": "increase"}, {"measurement": "expression of early apoptosis mark caspase-3", "setting": "[5]; HEI-OC1 co-treated with HNK and cisplatin versus cisplatin alone, pilot studies", "result": "higher in some cells"}, {"measurement": "TS in tonal ABR at the highest frequency (32 kHz)", "setting": "mice; HNK 10 mg/kg and cisplatin 15 mg/kg", "result": "significant TS"}, {"measurement": "TS at other frequencies and dose combinations", "setting": "mice; HNK 10-20 mg/kg, cisplatin 15-20 mg/kg", "result": "No further significant TS"}, {"measurement": "ABR TS induced by cisplatin", "setting": "mice; mice pre-treated with HNK", "result": "decreased significantly"}, {"measurement": "effect with cisplatin on colon cancer cells", "setting": "colon cancer cells; honokiol 10 μM or 25 μM, cisplatin 50 μM", "result": "synergistic effect"}, {"measurement": "protection of colon cancer cells from the toxicity of cisplatin", "setting": "colon cancer cells; [6]", "result": "not observed to protect"}]}
